Consider one compound from patent US12247216B2, “Pluripotent cell aggregates and use thereof” (ALEPH FARMS LTD., priority 2019, dated 2025).

The subject of the assay is bESC lines Alp 0501 and Alp 0505. The experiment in a line: bESC differentiation to mesoderm, qPCR of Oct4 and Brachyury. The assay is classed as cell-based, bovine. The settings on record: 8 μM CHIR 99021 added to Essential 6 medium, aggregates expanded three days, FIG. 5. On the procedure:
Quantitative PCR (qPCR) analysis was performed as follows: • 1. Total RNA was extracted from the cells using GeneJET RNA purification kit (Thermo Fisher Scientific). • 2. Reverse transcription was carried out with RevertAid First Strand cDNA Synthesis Kit (Thermo Fisher Scientific). 3. Quantitative PCR (qPCR) was performed to analyze expression of specific genes using specific primers designed for use in probe-based detection method. • 4. All expression data were normalized to beta-actin. Relative quantification of fold change was calculated using the comparative Ct (ΔΔCt) method. Initial differentiation of bESC to mesoderm: • 1. Cells were harvested and seeded for aggregates formation in 6-well plates as detailed in example 4 below. • 2. The initial conditions were: • a. bESC in the growth medium mTeSR1 (StemCell technologies) • b. bESC in the growth medium Essential 8 (Thermo Fisher Scientific) • 3. Four days after seeding, the medium was replaced to form the following conditions: • a. Medium of bESC aggregates formed in mTeSR1 remained. • b. Medium of bESC aggregates formed in Essential 8 medium was replaced to Essential 6 medium (Thermo Fisher Scientific) • Or— • c. Medium of bESC aggregates formed in Essential 8 medium was replaced to Essential 6 supplemented with 8 μM CHIR 99021. • 4. […]

On to `Cc1cnc(-c2cnc(NCCNc3ccc(C#N)cn3)nc2-c2ccc(Cl)cc2Cl)[nH]1` [CHIR 99021, 6-[[2-[[4-(2,4-Dichlorophenyl)-5-(5-methyl-1H-imidazol-2-yl)-2-pyrimidinyl]amino]ethyl]amino]-3-pyridinecarbonitrile], for which the “Brachyury expression (initial mesoderm marker)” value is given as “increase” and the “Oct4 expression (pluripotency marker)” value is “additional decrease”.
